Data taken from ChEMBL document CHEMBL5729134, “Apoptosis signal-regulating kinase 1 inhibitors and methods of use thereof” (2022).

target: T1, Mitogen-activated protein kinase kinase kinase 5 (Homo sapiens, UniProt Q99683); experiment: HTRF KinEASE Assay : ASK1 was purchased from Thermofisher (Catalogue #PV4011), ATP was purchased from Sigma (Catalogue #A7699), HTRF® KinEASE Assay System was obtained from Cisbio (Bedford, Mass.). ½ Area plate was purchased from Perkin Elmer (Catalogue ##6005560). HTRF® KinEASE-STK is a generic method for measuring serine/threonine kinase activities using a time-resolved fluorescence resonance energy transfer (TR-FRET) immunoassay. The IC50 value for each compound was determined in the presence of compound (various concentration from 0 to 10 μM) and a fixed amount of ATP and peptide substrates. The test compound, 1 μM STK3 peptide substrate, and […] are incubated with kinase reaction buffer containing 50 mM HEPES Ph 7.5, 0.01% BRIJ-35, 10 mM MgCl2, and 1 mM EGTA for 30 minutes. 100 μM ATP is added to start kinase reaction and incubated for 3 hours. The STK3-antibody labeled with Eu3+-Cryptate and 125 nM streptavidin-XL665 are mixed in a single addition with stop reagents provided by the Cisbio kit used to stop the kinase reaction. Fluorescence is detected using an Envision Multilabeled 2014 reader from PerkinElmer. The Fluorescence is measured at 615 nm (Cryptate) and 665 nm (XL665) and a ratio of 665 nm/615 nm is calculated for each well. The resulting TR-FRET is proportional to the phosphorylation level. Staurosporine was used as the positive control. IC50 was determined by Xlfit 5.3.
T1 sequence (Q99683 whole entry): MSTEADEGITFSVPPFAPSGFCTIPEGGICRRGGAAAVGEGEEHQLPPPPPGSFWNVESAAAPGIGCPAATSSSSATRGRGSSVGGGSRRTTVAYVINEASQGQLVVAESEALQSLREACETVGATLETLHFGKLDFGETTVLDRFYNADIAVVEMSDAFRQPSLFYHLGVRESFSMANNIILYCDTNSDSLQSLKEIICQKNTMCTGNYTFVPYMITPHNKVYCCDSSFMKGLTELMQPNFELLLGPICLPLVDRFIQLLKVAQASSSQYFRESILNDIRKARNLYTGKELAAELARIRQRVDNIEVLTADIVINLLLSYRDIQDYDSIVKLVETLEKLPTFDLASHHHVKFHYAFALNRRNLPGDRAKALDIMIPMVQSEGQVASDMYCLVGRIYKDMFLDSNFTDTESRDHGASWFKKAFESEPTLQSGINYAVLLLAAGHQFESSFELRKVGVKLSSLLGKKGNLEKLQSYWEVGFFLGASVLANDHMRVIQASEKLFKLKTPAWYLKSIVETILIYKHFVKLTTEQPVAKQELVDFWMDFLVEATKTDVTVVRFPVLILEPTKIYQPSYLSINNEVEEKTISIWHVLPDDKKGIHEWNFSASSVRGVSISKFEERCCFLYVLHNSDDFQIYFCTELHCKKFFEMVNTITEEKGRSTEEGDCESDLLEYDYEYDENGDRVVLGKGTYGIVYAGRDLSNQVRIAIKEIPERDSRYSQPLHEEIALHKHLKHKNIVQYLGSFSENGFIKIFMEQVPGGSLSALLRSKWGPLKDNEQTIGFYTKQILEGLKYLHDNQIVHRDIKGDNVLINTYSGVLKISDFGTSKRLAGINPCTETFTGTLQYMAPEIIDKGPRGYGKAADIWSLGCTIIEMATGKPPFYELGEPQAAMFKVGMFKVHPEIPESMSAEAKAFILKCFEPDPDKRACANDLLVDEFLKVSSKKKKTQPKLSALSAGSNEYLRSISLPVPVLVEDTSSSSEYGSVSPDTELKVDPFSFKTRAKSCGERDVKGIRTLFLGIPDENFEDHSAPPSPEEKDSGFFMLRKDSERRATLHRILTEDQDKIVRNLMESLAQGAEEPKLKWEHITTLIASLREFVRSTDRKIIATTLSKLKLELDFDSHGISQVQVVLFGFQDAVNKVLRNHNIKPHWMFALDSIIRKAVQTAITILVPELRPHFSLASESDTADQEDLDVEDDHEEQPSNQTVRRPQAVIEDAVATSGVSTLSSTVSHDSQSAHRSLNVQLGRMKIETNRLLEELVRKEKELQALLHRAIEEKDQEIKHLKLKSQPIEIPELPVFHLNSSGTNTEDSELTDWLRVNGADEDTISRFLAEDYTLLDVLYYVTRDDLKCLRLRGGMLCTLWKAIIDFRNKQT

| SMILES | IC50 |
| --- | --- |
| CC(C)CN1CCc2cnc(C(=O)Nc3cccc(-c4nncn4[C@H](C)CO)n3)cc2C1 | 1.25 to 10 nM |
| COc1cc2c(cc1C(=O)Nc1cccc(-c3nncn3[C@H](C)CO)n1)CN(C(C)C)CC2 | < 1.25 nM |
| CCNC(=O)N1CCc2cc(OC)c(C(=O)Nc3cccc(-c4nnnn4C(C)C)n3)cc2C1 | < 1.25 nM |
| COc1cc2c(cc1C(=O)Nc1cccc(-c3nnnn3[C@H](C)CO)n1)CN(S(=O)(=O)C1CC1)CC2 | < 1.25 nM |
| C[C@H](CO)n1cnnc1-c1cccc(NC(=O)c2cc3c(cc2F)CCN(C(=O)OC2CC2)C3)n1 | 1.25 to 10 nM |
| C[C@H](CO)n1cnnc1-c1cccc(NC(=O)c2cc3c(cc2F)CCN(C(=O)NC2CCCC2)C3)n1 | < 1.25 nM |
| CC(C)n1cnnc1-c1cccc(NC(=O)c2cc3c(cn2)CCN(Cc2ccccn2)C3)n1 | < 1.25 nM |
| COc1cc2c(cc1C(=O)Nc1cccc(-c3nncn3C(C)C)n1)CN(C(=O)c1ccc(F)cc1)CC2 | < 1.25 nM |
| CC(C)COC(=O)N1CCc2cc(F)c(C(=O)Nc3cccc(-c4nncn4[C@H](C)CO)n3)cc2C1 | 1.25 to 10 nM |
| COc1cc2c(cc1C(=O)Nc1cccc(-c3nnnn3[C@H](C)CO)n1)CN(C(=O)C(C)(C)C)CC2 | < 1.25 nM |
| COc1cc2c(cc1C(=O)Nc1cccc(-c3nnnn3C(C)C)n1)CN(S(=O)(=O)CCC(F)(F)F)CC2 | 1.25 to 10 nM |
| CCNC(=O)N1CCc2cc(OC)c(C(=O)Nc3cccc(-c4nnnn4[C@H](C)CO)n3)cc2C1 | 1.25 to 10 nM |
| CCNC(=O)N1CCc2cc(F)c(C(=O)Nc3cccc(-c4nncn4[C@H](C)CO)n3)cc2C1 | < 1.25 nM |
| CC(C)N1CCc2cc(F)c(C(=O)Nc3cccc(-c4nncn4[C@H](C)CO)n3)cc2C1 | < 1.25 nM |
| COc1cc2c(cc1C(=O)Nc1cccc(-c3nnnn3[C@H](C)CO)n1)CN(S(=O)(=O)CCC(F)(F)F)CC2 | 1.25 to 10 nM |
| C[C@H](CO)n1cnnc1-c1cccc(NC(=O)c2cc3c(cc2F)CCN(C(=O)OCC(F)(F)F)C3)n1 | < 1.25 nM |
| CCOC(=O)N1CCc2cnc(C(=O)Nc3cccc(-c4nncn4[C@H](C)CO)n3)cc2C1 | < 1.25 nM |
| CC(C)n1cnnc1-c1cccc(NC(=O)c2cc3c(cn2)CCN(C(=O)N2CCCC2)C3)n1 | < 1.25 nM |
| CCOC(=O)N1CCc2cc(OC)c(C(=O)Nc3cccc(-c4nnnn4[C@H](C)CO)n3)cc2C1 | 1.25 to 10 nM |
| COc1cc2c(cc1C(=O)Nc1cccc(-c3nnnn3[C@H](C)CO)n1)CN(C(=O)OCc1ccccc1)CC2 | < 1.25 nM |
| COc1cc2c(cc1C(=O)Nc1cccc(-c3nnnn3[C@H](C)CO)n1)CN(C(C)C)CC2 | < 1.25 nM |
| COc1cc2c(cc1C(=O)Nc1cccc(-c3nncn3[C@H](C)CO)n1)CN(C)CC2 | < 1.25 nM |

| SMILES | IC50 |
| --- | --- |
| COc1cc2c(cc1C(=O)Nc1cccc(-c3nnnn3[C@H](C)CO)n1)CN(C(=O)N1CCCC1)CC2 | < 1.25 nM |
| COc1cc2c(cc1C(=O)Nc1cccc(-c3nnnn3C(C)C)n1)CN(S(=O)(=O)C1CC1)CC2 | < 1.25 nM |
| COc1cc2c(cc1C(=O)Nc1cccc(-c3nncn3C(C)C)n1)CN(C(C)C)CC2 | 1.25 to 10 nM |
| COc1cc2c(cc1C(=O)Nc1cccc(-c3nnnn3[C@H](C)CO)n1)CN(C(=O)C(C)(C)CO)CC2 | 1.25 to 10 nM |
| CCOC(=O)N1CCc2cc(OC)c(C(=O)Nc3cccc(-c4nncn4[C@H](C)CO)n3)cc2C1 | < 1.25 nM |
| COc1cc2c(cc1C(=O)Nc1cccc(-c3nncn3C(C)C)n1)CN(C(=O)C(C)(C)C)CC2 | 1.25 to 10 nM |
| C[C@H](CO)n1cnnc1-c1cccc(NC(=O)c2cc3c(cn2)CCN(Cc2ccccn2)C3)n1 | < 1.25 nM |
| COc1cc2c(cc1C(=O)Nc1cccc(-c3nnnn3[C@@H]3CCC[C@@H]3O)n1)CN(C(=O)OCC(F)(F)F)CC2 | 1.25 to 10 nM |
| COc1cc2c(cc1C(=O)Nc1cccc(-c3nncn3[C@H](C)CO)n1)CN(C(=O)OCC(F)(F)F)CC2 | 1.25 to 10 nM |
| COc1cc2c(cc1C(=O)Nc1cccc(-c3nncn3C(C)C)n1)CN(C)CC2 | < 1.25 nM |
| COc1cc2c(cc1C(=O)Nc1cccc(-c3nnnn3[C@H](C)CO)n1)CN(C(=O)OC(C)C)CC2 | < 1.25 nM |
| C[C@H](CO)n1cnnc1-c1cccc(NC(=O)c2cc3c(cc2F)CCN(S(=O)(=O)C2CC2)C3)n1 | < 1.25 nM |
| COc1cc2c(cc1C(=O)Nc1cccc(-c3nncn3C(C)C)n1)CN(C(=O)OCC(F)(F)F)CC2 | < 1.25 nM |
| CCNC(=O)N1CCc2cc(OC)c(C(=O)Nc3cccc(-c4nncn4[C@H](C)CO)n3)cc2C1 | < 1.25 nM |
| CCOC(=O)N1CCc2cc(OC)c(C(=O)Nc3cccc(-c4nnnn4C(C)C)n3)cc2C1 | < 1.25 nM |
| COc1cc2c(cc1C(=O)Nc1cccc(-c3nnnn3[C@H](C)CO)n1)CN(C(=O)C[C@H](C)O)CC2 | < 1.25 nM |
| COc1cc2c(cc1C(=O)Nc1cccc(-c3nnnn3C(C)C)n1)CN(C(=O)OC(C)C)CC2 | < 1.25 nM |
| COc1cc2c(cc1C(=O)Nc1cccc(-c3nnnn3C(C)C)n1)CN(C(=O)C(C)(C)C)CC2 | < 1.25 nM |
| C[C@H](CO)n1cnnc1-c1cccc(NC(=O)c2cc3c(cc2F)CCN(C)C3)n1 | 1.25 to 10 nM |
| C[C@H](CO)n1cnnc1-c1cccc(NC(=O)c2cc3c(cc2F)CCN(C(=O)OCCF)C3)n1 | < 1.25 nM |
| CCOC(=O)N1CCc2cc(F)c(C(=O)Nc3cccc(-c4nncn4[C@H](C)CO)n3)cc2C1 | < 1.25 nM |
| CCNC(=O)N1CCc2cc(OC)c(C(=O)Nc3cccc(-c4nncn4C(C)C)n3)cc2C1 | < 1.25 nM |

| SMILES | IC50 |
| --- | --- |
| COc1cc2c(cc1C(=O)Nc1cccc(-c3nncn3C(C)C)n1)CN(S(=O)(=O)CCC(F)(F)F)CC2 | 1.25 to 10 nM |
| C[C@H](CO)n1cnnc1-c1cccc(NC(=O)c2cc3c(cc2F)CCN(C(=O)N2CCCC2)C3)n1 | < 1.25 nM |
| COc1cc2c(cc1C(=O)Nc1cccc(-c3nncn3C(C)C)n1)CN(C(=O)N1CCCC1)CC2 | < 1.25 nM |
| C[C@H](CO)n1cnnc1-c1cccc(NC(=O)c2cc3c(cc2F)CCN(C(=O)c2ccc(F)cc2)C3)n1 | 1.25 to 10 nM |
| COc1cc2c(cc1C(=O)Nc1cccc(-c3nnnn3C(C)C)n1)CN(C(=O)OCC(F)(F)F)CC2 | < 1.25 nM |
| C[C@H](CO)n1cnnc1-c1cccc(NC(=O)c2cc3c(cc2F)CCN(C(=O)C(C)(C)C)C3)n1 | 1.25 to 10 nM |
| C[C@H](CO)n1cnnc1-c1cccc(NC(=O)c2cc3c(cc2F)CCN(C(=O)N(C)C)C3)n1 | 1.25 to 10 nM |
| CC(C)n1cnnc1-c1cccc(NC(=O)c2cc3c(cn2)CCN(C(=O)c2ccc(F)cc2)C3)n1 | 1.25 to 10 nM |
| C[C@H](CO)n1cnnc1-c1cccc(NC(=O)c2cc3c(cn2)CCN(S(=O)(=O)c2ccccc2)C3)n1 | < 1.25 nM |
| COc1cc2c(cc1C(=O)Nc1cccc(-c3nnnn3C(C)C)n1)CN(C(=O)OCc1ccccc1)CC2 | < 1.25 nM |
| COc1cc2c(cc1C(=O)Nc1cccc(-c3nnnn3[C@H](C)CO)n1)CN(C)CC2 | 1.25 to 10 nM |
| COc1cc2c(cc1C(=O)Nc1cccc(-c3nncn3[C@H](C)CO)n1)CN(C(=O)OC(C)C)CC2 | 1.25 to 10 nM |
| COc1cc2c(cc1C(=O)Nc1cccc(-c3nnnn3C(C)C)n1)CN(C(=O)N1CCCC1)CC2 | < 1.25 nM |
| COc1cc2c(cc1C(=O)Nc1cccc(-c3nnnn3C(C)C)n1)CN(C)CC2 | < 1.25 nM |
| COc1cc2c(cc1C(=O)Nc1cccc(-c3nnnn3C(C)C)n1)CN(C(=O)c1ccc(F)cc1)CC2 | < 1.25 nM |
| COc1cc2c(cc1C(=O)Nc1cccc(-c3nnnn3[C@H](C)CO)n1)CN(C(=O)c1ccc(F)cc1)CC2 | < 1.25 nM |
| C[C@H](CO)n1cnnc1-c1cccc(NC(=O)c2cc3c(cn2)CCN(C(=O)N2CCCC2)C3)n1 | 1.25 to 10 nM |
| COc1cc2c(cc1C(=O)Nc1cccc(-c3nnnn3[C@H](C)CO)n1)CN(C(=O)OCC(F)(F)F)CC2 | 1.25 to 10 nM |
| COc1cc2c(cc1C(=O)Nc1cccc(-c3nncn3[C@H](C)CO)n1)CN(C(=O)OC(C)(C)C)CC2 | < 1.25 nM |
| C[C@H](CO)n1cnnc1-c1cccc(NC(=O)c2cc3c(cc2F)CCN(S(=O)(=O)CCC(F)(F)F)C3)n1 | < 1.25 nM |
